Like-named read-outs stand apart in the source and are kept apart here.
Columns and labels:
Experiment in all cases: biochemical
Set-up in all cases: Reaction Biology 371-kinase panel at Km ATP, per cent enzyme activity relative to DMSO, single dose in duplicate
IKKa/CHUK = IKKa/CHUK (Homo sapiens, UniProt O15111); conditions: duplicate measurements, Km ATP
Outline: (§1)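 First, kinases from a 371-member panel were exposed in vitro to 300 nM inhibitor. Next, % enzyme activity versus DMSO was computed. Finally, IC50s were derived by sigmoidal dose-response fitting with variable slope and a zero bottom constraint.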

SGK3/SGKL = SGK3/SGKL (Homo sapiens, UniProt Q96BR1); conditions: duplicate measurements, Km ATP
Outline: as §1

FGFR2 = FGFR2 (Homo sapiens, UniProt P21802); conditions: duplicate measurements, Km ATP
Outline: as §1

PKCnu/PRKD3 = PKCnu/PRKD3 (Homo sapiens, UniProt O94806); conditions: duplicate measurements, Km ATP
Outline: as §1

DCAMKL2 = target: T1, DCAMKL2 (Homo sapiens, UniProt Q8N568); conditions: duplicate measurements, Km ATP
T1 construct: gene DCLK2
Outline: as §1

BRAF = BRAF (Homo sapiens, UniProt P15056); conditions: duplicate measurements, Km ATP
Outline: as §1

HIPK3 = HIPK3 (Homo sapiens, UniProt Q9H422); conditions: duplicate measurements, Km ATP
Outline: as §1

STK38/NDR1 = STK38/NDR1 (Homo sapiens, UniProt Q15208); conditions: duplicate measurements, Km ATP
Outline: as §1

LYN = LYN (Homo sapiens, UniProt P07948); conditions: duplicate measurements, Km ATP
Outline: as §1

SNRK = SNRK (Homo sapiens, UniProt Q9NRH2); conditions: duplicate measurements, Km ATP
Outline: as §1

DYRK4 = target: T2, DYRK4 (Homo sapiens, UniProt Q9NR20); conditions: duplicate measurements, Km ATP
T2 sequence (Q9NR20 1-520): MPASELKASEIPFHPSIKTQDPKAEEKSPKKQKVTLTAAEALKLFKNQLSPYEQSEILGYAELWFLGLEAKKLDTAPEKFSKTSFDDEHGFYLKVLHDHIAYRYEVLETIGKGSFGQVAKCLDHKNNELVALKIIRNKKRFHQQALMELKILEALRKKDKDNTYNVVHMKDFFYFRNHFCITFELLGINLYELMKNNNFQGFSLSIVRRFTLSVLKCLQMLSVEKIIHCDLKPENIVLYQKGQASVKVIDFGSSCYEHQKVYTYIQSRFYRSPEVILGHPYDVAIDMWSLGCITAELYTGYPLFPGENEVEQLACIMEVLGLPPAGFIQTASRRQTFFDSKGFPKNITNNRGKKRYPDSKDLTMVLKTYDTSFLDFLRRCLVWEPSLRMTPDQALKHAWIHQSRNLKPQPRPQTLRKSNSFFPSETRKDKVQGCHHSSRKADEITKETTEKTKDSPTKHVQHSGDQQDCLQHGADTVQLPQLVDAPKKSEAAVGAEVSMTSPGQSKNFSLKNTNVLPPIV
Outline: as §1

TYK1/LTK = TYK1/LTK (Homo sapiens, UniProt P29376); conditions: duplicate measurements, Km ATP; read-out: % Enzyme Activity (relative to DMSO controls) / TP-0005801 (0.3µM) / Data 1
Outline: as §1

CDK6/cyclin D1 = CDK6/cyclin D1 (Homo sapiens, UniProt Q00534); conditions: duplicate measurements, Km ATP
Outline: as §1

JAK1 = JAK1 (Homo sapiens, UniProt P23458); conditions: duplicate measurements, Km ATP
Outline: as §1

GRK3 = GRK3 (Homo sapiens, UniProt P35626); conditions: duplicate measurements, Km ATP
Outline: as §1

CDK3/cyclin E = CDK3/cyclin E (Homo sapiens, UniProt Q00526); conditions: duplicate measurements, Km ATP
Outline: as §1

STK16 = STK16 (Homo sapiens, UniProt O75716); conditions: duplicate measurements, Km ATP
Outline: as §1

[1] = read-out: % Enzyme Activity (relative to DMSO controls) / TP-0005801 (0.3µM) / Data 1
[2] = read-out: % Enzyme Activity (relative to DMSO controls) / TP-0005801 (0.3µM) / Data 2

Sequence of GRK3 (P35626 whole entry): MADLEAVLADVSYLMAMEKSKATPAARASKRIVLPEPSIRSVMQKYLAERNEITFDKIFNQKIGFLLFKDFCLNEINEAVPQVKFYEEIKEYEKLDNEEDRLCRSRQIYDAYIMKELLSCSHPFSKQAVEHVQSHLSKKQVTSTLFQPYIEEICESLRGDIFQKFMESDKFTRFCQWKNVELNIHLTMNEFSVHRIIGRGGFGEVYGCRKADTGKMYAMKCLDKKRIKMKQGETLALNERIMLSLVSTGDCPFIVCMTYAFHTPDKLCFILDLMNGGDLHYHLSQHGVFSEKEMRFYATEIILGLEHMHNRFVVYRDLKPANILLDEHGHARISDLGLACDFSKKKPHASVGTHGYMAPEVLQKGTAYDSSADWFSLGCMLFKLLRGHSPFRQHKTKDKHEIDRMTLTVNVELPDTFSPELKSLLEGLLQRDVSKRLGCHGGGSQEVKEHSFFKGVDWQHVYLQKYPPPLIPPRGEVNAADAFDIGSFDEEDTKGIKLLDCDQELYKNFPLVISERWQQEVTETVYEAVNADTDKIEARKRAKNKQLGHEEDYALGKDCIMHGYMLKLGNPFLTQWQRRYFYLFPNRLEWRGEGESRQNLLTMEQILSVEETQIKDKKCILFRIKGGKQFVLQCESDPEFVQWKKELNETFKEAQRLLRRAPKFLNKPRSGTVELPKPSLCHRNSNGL
Sequence of SGK3/SGKL (Q96BR1 whole entry): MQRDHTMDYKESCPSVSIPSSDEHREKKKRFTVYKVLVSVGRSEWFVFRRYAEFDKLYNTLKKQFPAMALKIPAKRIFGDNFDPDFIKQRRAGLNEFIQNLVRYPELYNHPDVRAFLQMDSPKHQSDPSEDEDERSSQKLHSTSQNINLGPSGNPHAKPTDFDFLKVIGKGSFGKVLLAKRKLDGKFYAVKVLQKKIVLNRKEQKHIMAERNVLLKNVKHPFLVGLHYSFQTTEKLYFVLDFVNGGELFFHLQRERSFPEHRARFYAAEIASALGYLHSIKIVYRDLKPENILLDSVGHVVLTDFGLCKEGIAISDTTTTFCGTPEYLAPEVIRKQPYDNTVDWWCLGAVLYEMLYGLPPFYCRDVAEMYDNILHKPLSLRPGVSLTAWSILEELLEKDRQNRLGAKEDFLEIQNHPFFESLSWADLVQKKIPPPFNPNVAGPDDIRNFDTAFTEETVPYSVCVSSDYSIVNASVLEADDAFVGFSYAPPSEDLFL
Sequence of LYN (P07948 whole entry): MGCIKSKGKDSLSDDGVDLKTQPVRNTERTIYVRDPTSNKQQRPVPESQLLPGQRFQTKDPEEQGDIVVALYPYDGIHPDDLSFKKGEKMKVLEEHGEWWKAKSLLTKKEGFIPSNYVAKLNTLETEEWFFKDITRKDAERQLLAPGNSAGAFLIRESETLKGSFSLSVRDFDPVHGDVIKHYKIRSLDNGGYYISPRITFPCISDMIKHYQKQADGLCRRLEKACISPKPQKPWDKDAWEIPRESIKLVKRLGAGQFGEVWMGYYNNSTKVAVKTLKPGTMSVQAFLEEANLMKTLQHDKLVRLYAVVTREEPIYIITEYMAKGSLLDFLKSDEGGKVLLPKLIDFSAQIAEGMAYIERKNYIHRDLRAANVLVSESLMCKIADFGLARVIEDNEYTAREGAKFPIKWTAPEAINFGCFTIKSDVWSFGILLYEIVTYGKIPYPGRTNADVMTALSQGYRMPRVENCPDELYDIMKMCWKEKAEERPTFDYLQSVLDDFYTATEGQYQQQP
Sequence of STK16 (O75716 whole entry): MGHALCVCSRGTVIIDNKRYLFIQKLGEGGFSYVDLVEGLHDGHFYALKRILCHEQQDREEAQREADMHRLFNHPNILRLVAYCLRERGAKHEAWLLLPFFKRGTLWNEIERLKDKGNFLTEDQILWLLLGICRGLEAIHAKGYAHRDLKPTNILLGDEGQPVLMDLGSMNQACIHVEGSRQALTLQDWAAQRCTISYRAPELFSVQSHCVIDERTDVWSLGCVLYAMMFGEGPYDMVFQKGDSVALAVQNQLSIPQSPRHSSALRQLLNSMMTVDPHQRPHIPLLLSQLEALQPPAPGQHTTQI
Sequence of CDK6/cyclin D1 (Q00534 whole entry): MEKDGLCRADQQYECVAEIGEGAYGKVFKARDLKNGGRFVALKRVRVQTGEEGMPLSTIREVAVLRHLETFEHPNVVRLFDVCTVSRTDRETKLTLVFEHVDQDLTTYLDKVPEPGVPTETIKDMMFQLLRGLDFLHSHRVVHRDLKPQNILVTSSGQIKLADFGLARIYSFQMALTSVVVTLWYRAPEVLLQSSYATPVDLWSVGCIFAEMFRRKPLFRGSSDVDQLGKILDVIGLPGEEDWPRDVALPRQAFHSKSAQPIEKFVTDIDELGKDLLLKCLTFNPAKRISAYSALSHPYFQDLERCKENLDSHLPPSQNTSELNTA
Sequence of CDK6/cyclin D1 (P24385 whole entry partner): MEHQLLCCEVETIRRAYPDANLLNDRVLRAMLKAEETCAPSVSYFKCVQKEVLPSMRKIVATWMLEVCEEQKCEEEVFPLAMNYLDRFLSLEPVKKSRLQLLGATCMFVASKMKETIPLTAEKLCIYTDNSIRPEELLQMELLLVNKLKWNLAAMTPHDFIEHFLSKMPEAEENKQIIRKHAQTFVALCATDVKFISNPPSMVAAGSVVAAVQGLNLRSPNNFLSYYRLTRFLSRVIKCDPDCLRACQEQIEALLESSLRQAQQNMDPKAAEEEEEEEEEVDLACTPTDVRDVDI
Sequence of STK38/NDR1 (Q15208 whole entry): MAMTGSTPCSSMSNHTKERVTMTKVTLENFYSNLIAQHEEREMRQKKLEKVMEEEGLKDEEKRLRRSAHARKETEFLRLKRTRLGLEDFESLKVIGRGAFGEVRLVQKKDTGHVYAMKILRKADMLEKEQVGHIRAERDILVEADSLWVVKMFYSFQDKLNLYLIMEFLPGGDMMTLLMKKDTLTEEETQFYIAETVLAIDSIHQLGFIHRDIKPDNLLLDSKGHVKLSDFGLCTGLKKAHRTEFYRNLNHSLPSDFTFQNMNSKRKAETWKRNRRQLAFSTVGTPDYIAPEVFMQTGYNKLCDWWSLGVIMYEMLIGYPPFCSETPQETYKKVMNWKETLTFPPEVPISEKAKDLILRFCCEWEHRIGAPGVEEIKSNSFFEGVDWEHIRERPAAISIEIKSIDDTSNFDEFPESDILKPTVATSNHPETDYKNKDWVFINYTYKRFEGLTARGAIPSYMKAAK
Sequence of FGFR2 (P21802 whole entry): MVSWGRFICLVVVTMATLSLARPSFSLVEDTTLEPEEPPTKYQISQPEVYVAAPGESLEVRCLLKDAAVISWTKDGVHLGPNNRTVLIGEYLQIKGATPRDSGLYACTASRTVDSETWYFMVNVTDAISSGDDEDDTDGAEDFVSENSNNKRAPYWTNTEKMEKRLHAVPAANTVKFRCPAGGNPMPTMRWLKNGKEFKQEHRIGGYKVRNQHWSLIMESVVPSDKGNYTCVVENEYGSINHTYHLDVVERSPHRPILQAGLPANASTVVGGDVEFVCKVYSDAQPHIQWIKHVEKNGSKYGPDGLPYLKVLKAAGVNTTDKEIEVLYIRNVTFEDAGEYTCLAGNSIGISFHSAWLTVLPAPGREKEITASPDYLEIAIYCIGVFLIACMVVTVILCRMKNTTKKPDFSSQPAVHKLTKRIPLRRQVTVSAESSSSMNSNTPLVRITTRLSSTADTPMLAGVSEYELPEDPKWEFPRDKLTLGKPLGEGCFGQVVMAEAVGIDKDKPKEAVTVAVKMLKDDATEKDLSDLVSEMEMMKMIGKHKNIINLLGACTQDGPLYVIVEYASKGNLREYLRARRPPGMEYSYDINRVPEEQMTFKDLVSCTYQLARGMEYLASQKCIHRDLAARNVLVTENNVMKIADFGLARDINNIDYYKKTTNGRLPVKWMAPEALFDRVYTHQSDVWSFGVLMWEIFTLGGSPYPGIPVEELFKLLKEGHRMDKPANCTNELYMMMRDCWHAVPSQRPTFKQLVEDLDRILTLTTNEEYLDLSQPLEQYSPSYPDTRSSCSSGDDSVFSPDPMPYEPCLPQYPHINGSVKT
Sequence of IKKa/CHUK (O15111 whole entry): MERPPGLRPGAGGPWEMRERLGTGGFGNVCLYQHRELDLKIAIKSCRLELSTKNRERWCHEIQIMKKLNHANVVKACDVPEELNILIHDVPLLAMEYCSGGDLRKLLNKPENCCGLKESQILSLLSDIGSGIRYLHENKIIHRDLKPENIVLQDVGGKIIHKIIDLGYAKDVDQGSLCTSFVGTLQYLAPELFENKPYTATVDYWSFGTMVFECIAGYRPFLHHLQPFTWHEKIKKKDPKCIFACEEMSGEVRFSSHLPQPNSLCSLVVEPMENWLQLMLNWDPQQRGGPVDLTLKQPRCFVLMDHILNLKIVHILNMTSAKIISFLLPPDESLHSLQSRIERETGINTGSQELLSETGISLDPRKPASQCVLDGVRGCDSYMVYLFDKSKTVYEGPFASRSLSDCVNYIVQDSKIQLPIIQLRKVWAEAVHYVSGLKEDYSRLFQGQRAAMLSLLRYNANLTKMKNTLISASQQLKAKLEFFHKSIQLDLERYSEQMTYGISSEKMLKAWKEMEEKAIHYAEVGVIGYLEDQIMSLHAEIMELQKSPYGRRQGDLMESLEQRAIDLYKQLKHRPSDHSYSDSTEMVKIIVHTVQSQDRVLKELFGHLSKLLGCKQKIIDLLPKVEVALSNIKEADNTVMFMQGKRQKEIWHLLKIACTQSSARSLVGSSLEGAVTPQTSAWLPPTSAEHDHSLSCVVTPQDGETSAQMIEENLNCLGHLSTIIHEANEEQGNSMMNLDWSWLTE

COc1cc(N2CCN(C)CC2)c(C)cc1Nc1ncc(Br)c(Nc2cccnc2N(C)C)n1 [TP-5801]
remaining activity at 0.3 µM (IKKa/CHUK; [1]): 99.5% | remaining activity at 0.3 µM (IKKa/CHUK; [2]): 94.3% | remaining activity at 0.3 µM (SGK3/SGKL; [1]): 108% | remaining activity at 0.3 µM (SGK3/SGKL; [2]): 105% | remaining activity at 0.3 µM (FGFR2; [1]): 89.2% | remaining activity at 0.3 µM (FGFR2; [2]): 87.3% | remaining activity at 0.3 µM (PKCnu/PRKD3; [1]): 55.8% | remaining activity at 0.3 µM (PKCnu/PRKD3; [2]): 55.5% | remaining activity at 0.3 µM (DCAMKL2; [1]): 93.7% | remaining activity at 0.3 µM (DCAMKL2; [2]): 89.7% | remaining activity at 0.3 µM (BRAF; [1]): 87.3% | remaining activity at 0.3 µM (BRAF; [2]): 85.1% | remaining activity at 0.3 µM (HIPK3; [1]): 91.9% | remaining activity at 0.3 µM (HIPK3; [2]): 85.6% | remaining activity at 0.3 µM (STK38/NDR1; [1]): 38.8% | remaining activity at 0.3 µM (STK38/NDR1; [2]): 38.7% | remaining activity at 0.3 µM (LYN; [1]): 70.1% | remaining activity at 0.3 µM (LYN; [2]): 69.8% | remaining activity at 0.3 µM (SNRK; [1]): 98.8% | remaining activity at 0.3 µM (SNRK; [2]): 98.6% | remaining activity at 0.3 µM (DYRK4; [1]): 104% | remaining activity at 0.3 µM (DYRK4; [2]): 99.2% | remaining activity at 0.3 µM (TYK1/LTK): 16.4% | remaining activity at 0.3 µM (CDK6/cyclin D1; [1]): 88.2% | remaining activity at 0.3 µM (CDK6/cyclin D1; [2]): 87.5% | remaining activity at 0.3 µM (JAK1; [1]): 104% | remaining activity at 0.3 µM (JAK1; [2]): 102% | remaining activity at 0.3 µM (GRK3; [1]): 93.9% | remaining activity at 0.3 µM (GRK3; [2]): 93% | remaining activity at 0.3 µM (CDK3/cyclin E; [1]): 98% | remaining activity at 0.3 µM (CDK3/cyclin E; [2]): 97.7% | remaining activity at 0.3 µM (STK16; [1]): 107% | remaining activity at 0.3 µM (STK16; [2]): 105%

Reference: paper PMC8429728, “TNK1 is a ubiquitin-binding and 14-3-3-regulated kinase that can be targeted to block tumor growth” (Nature Communications, 2021)
